Experimental data: PubChem BioAssay (NCI)
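Protocol summary: plate cells (96-well), add compound at 5 concentrations, incubate 48 h, interpolate endpoints linearly. GI50 marks 50% less growth. TGI marks complete inhibition of growth.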

How the values were obtained:
Assay in all cases: NCI-60 cell line screen, 48 h
ACHN renal = tested on: ACHN renal
HT29 colon = tested on: HT29 colon
M14 melanoma = tested on: M14 melanoma
RPMI-8226 leukemia = tested on: RPMI-8226 leukemia
SF-539 CNS = tested on: SF-539 CNS
SK-MEL-5 melanoma = tested on: SK-MEL-5 melanoma
SNB-19 CNS = tested on: SNB-19 CNS
SR leukemia = tested on: SR leukemia
EKVX NSCLC = tested on: EKVX NSCLC
T-47D breast = tested on: T-47D breast

Structure (SMILES)	TGI (ACHN renal) [µM]	TGI (HT29 colon) [µM]	TGI (M14 melanoma) [µM]	TGI (RPMI-8226 leukemia) [µM]	TGI (SF-539 CNS) [µM]	TGI (SK-MEL-5 melanoma) [µM]	TGI (SNB-19 CNS) [µM]	TGI (SR leukemia) [µM]	GI50 (ACHN renal) [µM]	GI50 (EKVX NSCLC) [µM]	TGI (EKVX NSCLC) [µM]	GI50 (HT29 colon) [µM]	GI50 (RPMI-8226 leukemia) [µM]	GI50 (SF-539 CNS) [µM]	GI50 (SK-MEL-5 melanoma) [µM]	GI50 (SNB-19 CNS) [µM]	GI50 (T-47D breast) [µM]	TGI (T-47D breast) [µM]	GI50 (M14 melanoma) [µM]	GI50 (SR leukemia) [µM]
CC1(C)C(=O)C(C)(C)C1=NN	> 100	> 100	> 100	> 100	> 100	> 100	> 100	> 100	–	–	–	–	–	–	–	–	–	–	–	–
C/C(=N\O)c1cccc(Nc2cc(-n3ccnn3)c3ccccc3n2)c1	34	82.5	–	32	44	26.2	> 100	–	15	19	76.1	2.17	12.5	19	13.4	45.6	14.9	64.9	–	–
O=C1C=CC=CC2CC=C[C@@H](O)C12 (stereo partly drawn)	31.8	37.7	50.7	15.3	63.9	38	54.3	44.2	–	–	63.5	–	–	–	–	–	–	–	–	–
O=C(c1ccc(Cl)cc1)c1ccc(OCCCCCCCCCCOc2ccc(C(=O)c3ccc(Cl)cc3)cc2)cc1	> 100	> 100	–	> 100	–	> 100	> 100	–	–	–	> 100	–	–	–	–	–	–	–	–	–
O=C(Nc1ccc(Cl)cc1Cl)C(=O)C(C(=O)c1ccc2ccccc2c1)C1OC(=O)c2ccccc21 (stereo not drawn)	> 100	33.1	28	> 100	11.7	26.1	22.1	–	–	–	35.9	–	–	–	–	–	–	–	–	–
O=C(Nc1cccs1)c1c(O)[nH]c(=S)[nH]c1=O	> 100	–	> 100	> 100	> 100	> 100	> 100	> 100	–	–	–	–	–	–	–	–	–	–	–	–
O=C(O)COc1ccc(O)c2c1C(=O)CCCC2=O	> 100	> 100	> 100	> 100	> 100	> 100	> 100	–	–	–	> 100	–	–	–	–	–	–	–	–	–
COc1ccccc1N=C(N)N/N=C/c1c[nH]c2ccccc12	22	14.9	10.5	32.1	26.4	8.91	28.6	26.9	–	–	23.2	–	–	–	–	–	–	–	–	–
CCc1cccc(C(C)C)c1NC(=O)C(=O)CC(=O)c1c(C)n([O-])c2ccccc2[n+]1=O	> 100	–	> 100	> 100	> 100	> 100	> 100	–	–	–	> 100	–	–	–	–	–	–	–	–	–
CCO/C=C/C(C)C1(C(=O)OCC)CCCCC1=O (stereo not drawn)	> 100	> 100	> 100	> 100	> 100	> 100	> 100	> 100	–	–	> 100	–	–	–	–	–	–	–	–	–
COc1cc(/C=C\c2ccccc2)cc(OC)c1OC	> 78.5	14.1	22.1	46.2	7.47	9.12	> 77.5	26.7	–	–	> 84.9	–	–	–	–	–	–	–	–	–
COc1ccc2c(c1)/C(=C\c1cccnc1)C(=O)N2	38.9	–	83.8	76.7	–	45.7	51.6	–	18.5	3.79	25.2	–	18.6	–	16.5	16.2	13	37.9	31	–
CN(C)c1ccc([O-])cc1.CN(C)c1ccc([O-])cc1.CN(C)c1ccc([O-])cc1.CN(C)c1ccc([O-])cc1.[Ti+4]	> 100	> 100	> 100	> 100	> 100	> 100	> 100	–	56.3	> 100	> 100	> 100	30.9	> 100	51.5	> 100	–	–	> 100	–
OC1c2ccccc2C2(O)C1C(c1ccccc1)C(c1ccccc1)C2(O)c1ccccc1 (stereo not drawn)	29.7	22.8	28.3	65.1	26	21.7	> 100	–	–	–	70.8	–	–	–	–	–	–	–	–	–
CCCNCCCC(NC(C)=O)C(=O)NCc1ccccc1 (stereo not drawn)	> 100	> 100	> 100	> 100	> 100	> 100	> 100	–	–	–	> 100	–	–	–	–	–	–	–	–	–
CC(=O)N[C@@H]1C(O)CN2C(=O)C(=O)O[C@H](C(O)CO)[C@@H]12 (stereo partly drawn)	> 100	> 100	–	> 100	> 100	–	> 100	–	–	–	> 100	–	–	–	–	–	–	–	–	–
CCCCCCCCCCCCCCN	> 100	> 100	–	> 100	–	> 100	–	–	–	–	> 100	–	–	–	–	–	–	> 100	–	–
COc1cc(CCN)c2c(c1OC)SSSSS2	1.61	1.39	0.676	1.77	2.62	2.23	4.72	0.679	0.45	1.26	2.59	0.34	0.287	1.25	0.712	2.45	–	–	0.085	0.113
CCCCC1CC(c2cccc([N+](=O)[O-])c2)=NO1 (stereo not drawn)	> 100	> 100	> 100	> 100	> 100	> 100	> 100	> 100	–	–	> 100	–	–	–	–	–	–	–	–	–
Clc1ccc(Cc2nc3ccccc3s2)c(Cl)c1	34.9	40.3	31.3	48.5	12	32.6	49.1	–	–	–	42.1	–	–	–	–	–	–	–	–	–
CC(C)C1(O)C(c2ccccc2)=C(c2ccccc2)C(c2ccccc2)=C1c1ccccc1	–	16	22.4	5.26	28.6	22.4	> 100	36	–	–	47	–	–	–	–	–	–	–	–	–
O=[N+]([O-])c1ccc(S(=O)Cc2ccccc2)c([N+](=O)[O-])c1 (stereo not drawn)	3.07	–	4.84	4.46	13.8	21.1	27.6	–	1.62	12.8	26.6	–	1.89	3.64	9.08	14	1.51	3.6	1.81	–
